Source: patent US20030186339A1, “Individualization of therapy with antibiotic agents” (McGill University, priority 2001, published 2003)
Read-outs that look alike come from different tables or passages of the source. Marks after values point to notes of the source that are not given here.

Tests used:
AAMU-Ab = test: Competitive antigen ELISA, cross-reactivity of AAMU-Ab; type: binding, rabbit; details: for % Cross-Reaction AAMU-Ab: competitive antigen ELISA, 0 = absence of inhibition or inhibition no higher than 40% at highest concentration tested (5×10^−3 M)
Procedure: (§1) Competitive Antigen ELISA
(§2) Buffers and water without additives are filtered through millipore filters and kept for 1 week. BSA, antibodies, Tween™ 20 and horse radish peroxidase conjugates are added to these buffers and water just prior to use. Urine samples are usually collected 4 hours after drinking a cup of coffee (instant or brewed with approximately 100 mg of caffeine per cup) and stored at −80° C. The urine samples are diluted 10 times with sodium phosphate buffer (620 mosm, pH 7.50) and are subsequently diluted with water to give concentrations of AAMU and 1X no higher than 3×10^−6 M in the ELISA. All the pipettings are done with an eight-channel pipette, except those of the antibody and sample solutions. Starting with the last well, 100 μL of a carbonate buffer (100 mM, pH 9.6) containing 2.5 μg mL-1 antibodies are added to each well. After 90 min. at room temperature, the wells are washed three times with […] of TPB: isotonic sodium phosphate buffer (310 mosm, pH 7.50) containing 0.05% Tween™ 20.
(§3) After the initial wash, unoccupied sites are blocked by incubation for 90 min. at room temperature with 100 μL TBP containing 3% BSA. The wells are washed four times with 100 μL TPB. […] The microplate is gently shaken with an orbital shaker at room temperature for 3-4 hours. The wells are washed three times with 100 μL TPB containing 1% BSA and three times with water containing 0.05% Tween™ 20. To the washed plate is added 150 μL of a substrate buffer composed of citric acid (25 mM) and sodium phosphate dibasic buffer (50 mM, pH 5.0) containing 0.06% hydrogen peroxide and 0.04% o-phenylenediamine hydrochloride.
(§4) Buffers and water without additives were filtered through millipore filters and kept for 1 week. BSA, antibodies, Tween™ 20 and horse radish peroxidase conjugates were added to these buffers and water just prior to use. Urine samples were usually collected 4 hours after drinking a cup of coffee (instant or brewed with approximately 100 mg of caffeine per cup) and stored at −80° C. They were diluted 10 times with sodium phosphate buffer (620 mosm, pH 7.50) and were subsequently diluted with water to give concentrations of AAMU and 1X no higher than 3×10^−6 M in the ELISA. All the pipettings were done with an eight-channel pipette, except those of the antibody and sample solutions. Starting with the last well, 100 μL of a carbonate buffer (100 mM, pH 9.6) containing 2.5 μg mL-1 antibodies was pipetted. After 90 min. at room temperature, the wells were washed three times with 100 μL of TPB: isotonic sodium phosphate buffer (310 mosm, pH 7.50) containing 0.05% Tween™ 20.
(§5) After the initial wash, unoccupied sites were blocked by incubation for 90 min. at room temperature with […] TBP containing 3% BSA. The wells were washed four times with 100 μL TPB. […] The microplate was gently shaken with an orbital shaker at room temperature for 3-4 hours. The wells were washed three times with 100 μL with TPB containing 1% BSA and three times with water containing 0.05% Tween™ 20. To the washed plate was added 150 μL of a substrate buffer composed of citric acid (25 mM) and sodium phosphate dibasic buffer (50 mM, pH 5.0) containing 0.06% hydrogen peroxide and 0.04% o-phenylenediamine hydrochloride. After 20 min. at room temperature with shaking, the reaction was stopped with 50 μL of 2.5 N HCl.
(§6) The cross reactivities of AAMU-Ab and 1X-Ab were tested using a wide variety of caffeine metabolites and structural analogs (Table 2 below).

1X-Ab = test: Competitive antigen ELISA, cross-reactivity of 1X-Ab; type: binding, rabbit; details: for % Cross-Reaction 1X-Ab: competitive antigen ELISA, 0 = absence of inhibition or inhibition no higher than 40% at highest concentration tested (5×10^−3 M)
Procedure: as §1, §2, §3, §4, §5, §6

[1] = cited from earlier work
[2] = healthy volunteers; cited from earlier work
S. pneumoniae = details: once a day for 10 days, acute bacterial exacerbation of chronic bronchitis; cited from earlier work
[3] = cited from earlier work; remark: listed apart in the source

| Structure (SMILES) | % Cross-Reaction AAMU-Ab (AAMU-Ab) | % Cross-Reaction 1X-Ab (1X-Ab) [%] | also measured |
| --- | --- | --- | --- |
| Cn1c(=O)c2c(ncn2C)n(C)c1=O [1,3,7-Trimethyl Xanthine (Caffeine), 1,3,7-Trimethyl Xanthine] | 0% | 0 |  |
| Cn1c(=O)c2[nH]cnc2n(C)c1=O [1,3-Dimethyl Xanthine (Theophylline), 1,3-Dimethyl Xanthine] | 0% | 0.2 |  |
| Cn1c(=O)[nH]c2ncn(C)c2c1=O [1,7-Dimethyl Xanthine (Paraxanthine), 1,7-Dimethyl Xanthine] | 0% | 0.5 |  |
| Cn1c(=O)[nH]c2[nH]c(=O)n(C)c2c1=O [1,7-Dimethyluric acid] | 0% | 0 |  |
| Cn1c(=O)[nH]c2nc[nH]c2c1=O [1-Methyl Xanthine (1X), 1-Methyl Xanthine] | 0% | 100 | IC50 (1X-Ab; read-out: concentration required for 50% inhibition in the competitive antigen ELISA, 1X-Ab, 1X-HRP conjugate): 10 µM |
| Cn1c(=O)[nH]c2[nH]c(=O)[nH]c2c1=O [1-Methyluric acid] | 0% | 11 |  |
| Cn1cnc2c1c(=O)[nH]c(=O)n2C [3,7-Dimethyl Xanthine (Theobromine), 3,7-Dimethyl Xanthine] | 0% | 0 |  |
| Cn1c(=O)[nH]c(=O)c2[nH]cnc21 [3-Methyl Xanthine] | 0% | 0 |  |
| CC(=O)Nc1c(N)n(C)c(=O)n(C)c1=O [5-Acetamino-6-amino-1,3-dimethyluracil] | 0% | 0 |  |
| CC(=O)Nc1c(N)n(C)c(=O)[nH]c1=O [5-Acetamino-6-amino-1-methyluracil] | 100% | 0 | IC50 (AAMU-Ab; read-out: concentration required for 50% inhibition in the competitive antigen ELISA, AAMU-Ab, AAMU-HRP conjugate): 1.5 µM |
| CC(=O)Nc1c(N)[nH]c(=O)[nH]c1=O [5-Acetamino-6-amino-uracil] | 0.6% | 0 |  |
| Cn1cnc2[nH]c(=O)[nH]c(=O)c21 [7-Methyl Xanthine] | 0% | 0 |  |
| Cc1nc2[nH]c(=O)[nH]c(=O)c2[nH]1 [8-Methyl Xanthine] | 0% | 0 |  |
| CC1(C)S[C@@H]2[C@H](NC(=O)Cc3ccccc3)C(=O)N2[C@H]1C(=O)O.CC1(C)S[C@@H]2[C@H](NC(=O)Cc3ccccc3)C(=O)N2[C@H]1C(=O)O.c1ccc(CNCCNCc2ccccc2)cc1 [Benzathine penicillin G] |  |  | duration of low sustained serum levels of penicillin G ([1]; human, in vivo): 1-3 weeks |
| O=C(N[C@H](CO)[C@H](O)c1ccc([N+](=O)[O-])cc1)C(Cl)Cl [Chloramphenicol] |  |  | CSF concentrations as % of serum levels ([1]; human, in vivo): 30-50% |
| C[C@H]1c2cccc(O)c2C(=O)C2=C(O)[C@]3(O)C(=O)C(C(N)=O)=C(O)[C@@H](N(C)C)[C@@H]3[C@@H](O)[C@@H]21 [Doxycycline] |  |  | serum half-life ([1]; human, in vivo): 17 to 20 h |
| Cc1c(F)c(N2CCNC(C)C2)cc2c1c(=O)c(C(=O)O)cn2C1CC1 (stereo not drawn) [Grepafloxacin, grepafloxacin] |  |  | effect on QTc interval [2]: Prolongation of the QTc Intervals has been observed; effectiveness against S. pneumoniae, 400 mg per day vs 600 mg per day (S. pneumoniae): may be less effective; time to peak plasma drug concentration after dosing ([1]; human, in vivo): 2 to 3 h; time to steady state concentrations ([1]; once-a-day dosing): ≤ 7 days; bioavailability ([1]; oral): approximately 70% |
| Nc1nc2nc[nH]c2c(=O)[nH]1 [Guanine] | 0% | 0 |  |
| O=c1[nH]cnc2nc[nH]c12 [Hypoxanthine] | 0% | 0 |  |
| O=c1cc[nH]c(=O)[nH]1 [Uracil] | 0% | 0 |  |
| O=c1[nH]c(=O)c2[nH]c(=O)[nH]c2[nH]1 [Uric acid] | 0% | 0 |  |
| O=c1[nH]c(=O)c2[nH]cnc2[nH]1 [Xanthine] | 0^a % | 0 |  |
| Nc1ccc(S(=O)(=O)c2ccc(N)cc2)cc1 [dapsone] |  |  | adverse reactions to dapsone ([3]; fast acetylators): 17%; adverse reactions to dapsone ([3]; slow acetylators): 46% |
